Experimental data taken from patent US20190092720A1, “FUNCTIONALIZED BENZAMIDE DERIVATIVES AS ANTIVIRAL AGENTS AGAINST HBV INFECTION” (BARUCH S. BLUMBERG INSTITUTE, priority 2012, published 2019).

How the values were obtained:
[1] = Cytotoxicity in AML12HBV10 cells (MTT assay); type: cell-based, murine; details: mouse, concentration that reduces viability by 50%, serial dilution 50 μM to 0.39 μM
Method: Determination of cytotoxicity of compounds of the disclosure in AML12HBV10 cells: To determine the cytotoxicity of the compounds, AML12HBV10 cells were seeded into 96-well plates at a density of 2×10^4 cells per well and cultured in DMEM/F12 media with 10% fetal bovine serum in the absence of tetracycline to allow pgRNA transcription and HBV DNA replication. One day after seeding, cells were left untreated or treated with a serial dilution of testing compounds, ranging from 50 μM to 0.39 μM, for 48 hours. The cell viability was measured by a MTT assay, following procedure provided by the manufacturer (Promega). The cytotoxicity of a compound was expressed as the concentration of compound that reduces the viability of the cells by 50% (CC50).

[2] = test system: HBV replication in HepDES19 cells; assay: Antiviral activity in HepDES19 cells (core-associated HBV DNA, Southern blot); type: cell-based, Hepatitis B virus (HBV); details: Hepatitis B virus, HepDES19, 144 h, concentration that reduces core-associated HBV DNA by 50%; 6 days; serial dilution 10 μM to 0.018 μM
From the text: Determination of antiviral activity of compounds of the disclosure, as presented in Table 1, in human hepatoma-derived cell lines: To further confirm the antiviral activity of the compounds of the disclosure against HBV in human hepatocyte-derived cells, HepDES19 cells, a human hepatoma cell line supporting HBV replication in a tetracycline inducible manner (Guo et al., 2007), seeded into 12-well plates at a density of 5×10^5 cells per well and cultured in DMEM/F12 media with 10% fetal bovine serum and 1 μg/ml tetracycline. Two days after seeding, the cells were mock-treated or treated with a serial dilution of compounds of the disclosure, ranging from 10 μM to 0.018 μM, for 6 days in the absence of tetracycline. Upon the completion of treatment, cells were lysed by adding into each well of the 12-well plates 0.5 ml of lysis buffer containing 10 mM Tris-HCl (pH 8.0), 1 mM EDTA, 1% NP40 and 2% sucrose and incubating at 37° C. for 10 minutes. Cell debris and nuclei were removed by centrifugation and the supernatant was mixed with 130 μl of 35% polyethylene glycol (PEG) 8000 containing 1.5 M NaCl. After 1 hour incubation in ice, viral nucleocapsids were pelleted by centrifugation at 6,000×g for 5 min at 4° C., followed by 1 hour digestion at 37° C. in 400 μl of digestion buffer containing 0.5 mg/ml pronase (Calbiochem), 0.5% SDS, 150 mM NaCl, 25 mM Tris-HCl (pH 8.0) and 10 mM EDTA. The digestion mixture was extracted twice with phenol and DNA was precipitated with ethanol, dissolved in TE buffer (10 mM Tris-HCl, pH 8.0; 0.1 mM EDTA). One half of the DNA sample from each well was resolved by electrophoresis into a 1.5% agarose gel. The gel was then subjected to denaturation in a solution containing 0.5 M NaOH and 1.5 M NaCl, followed by neutralization in a buffer containing 1 M Tris-HCl (pH7.4) and 1.5 M NaCl. DNA was then blotted onto Hybond-XL membrane (GE Health care) in 20×SSC buffer. The amounts of cytoplasmic HBV core-associated HBV DNA were determined by Southern blot hybridization and the antiviral efficacy of a compound was expressed as its concentration that reduce the amount of HBV DNA by 50% (EC50) or 90% (EC90).

HBV capsids = assay: Particle gel assay of nucleocapsids in AML12HBV10 cells; type: cell-based, Hepatitis B virus (HBV); details: 2 days, FIG. 1 panel B
Method: (§1) FIG. 1. Antiviral mechanism of the compounds of the present invention. AML12HBV10 cells were left untreated (NT) or treated with the indicated concentrations of the compounds of the disclosure Compound 6 and Compound 19, respectively, for 2 days. Bay-4109 (3 µM) or AT-61 (25 µM) served as positive controls. (A) Intracellular viral RNA was determined by Northern blot hybridization. Ribosomal RNA served as a loading control. (B) The total amounts of nucleocapsids were determined by a particle gel assay. (C) Encapsidated pgRNA were extracted and measured by Northern blot. (D) Nucleocapsid-associated HBV DNA was quantified by alkaline-treatment of nucleocapsids on the membrane following the particle gel assay and hybridized with a HBV-specific riboprobe. (E) HBV DNA replication intermediates were extracted and determined by Southern blot hybridizations.
Procedures of viral capsids and nucleocapsid-associated DNA analysis: AML12HB10 cells were lysed by addition of 300 μl buffer containing 10 mM Tris-HCl (pH7.6), 100 mM NaCl, 1 mM EDTA and 0.1% NP-40 to each well of 12-well plate. Cell debries were removed by centrifugation at 5000 g for 10 minutes. Ten microliters of the clarified cell lysates were fractionated by electrophoresis through nondenaturing 1% agarose gels and transferred to a nitrocellulose filter by blotting with TNE buffer (10 mM Tris-HCl, pH7.6; 150 mM NaCl and 1 mM EDTA). HBV capsids were detected by probing the membrane with an antibody against HBV core protein (DAKO). […] To detect capsid associated HBV DNA, the membrane were treated with buffer containing 0.5N NaOH and 1.5 M NaCl for 5 minutes and followed by neutralization with buffer containing 1 M TRIS-HCl and 1.5M NaCl for 5 minutes. The viral DNA was detected by hybridization with a α-^32P-UTP (800 Ci/mmol, Perkin Elmer) labeled minus strand specific full-length HBV riboprobe (Xu et al.).

encapsidated pgRNA = assay: Encapsidated pgRNA by Northern blot in AML12HBV10 cells; type: cell-based, Hepatitis B virus (HBV); details: 2 days, FIG. 1 panel C
Method: as §1
Determination of encapsidated pgRNA: AML12HBV10 cells were lysed by addition of 600 μl of lysis buffer (50 mM Tris-HCl [pH 7.5], 1 mM EDTA, 150 mM NaCl, 1% NP-40) into each well of 12-well plates. The nuclei were removed by centrifugation at 5,000 g for 10 minutes. One-half of the sample was mixed with 6 U of micrococcal nuclease (Pharmacia) and 15 μl of 100 mM CaCl2 and incubated for 15 minutes at 37° C. to digest free nucleic acids. The reaction was stopped with 6 μl of 0.5 M EDTA, and capsids were precipitated by adding 125 μl of 35% polyethylene glycol 8000 in 1.75 M NaCl to the reaction and incubating in ice for 30 minutes, followed by centrifugation at 6,000 g for 10 minutes at 4° C. Pellets were re-suspended in 50 μl of TNE buffer (10 mM Tris-HCl [pH 8], 100 mM NaCl, 1 mM EDTA). pgRNA was extracted by the addition of 1 ml of Trizol reagent. The encapsidated pgRNA were electrophoresed through a 2.2 M formaldehyde-1% agarose gel, transferred to a nylon membrane, and immobilized by UV cross-linking (Stratagene). Hybridization was performed with an alpha-^32P-UTP labeled riboprobe specific for plus strand of HBV genome.

SMILES: O=C(Nc1cccc(Cl)c1)c1scc2c1OCCO2 [Entry 6]
- CC50 at 48 h [1]: > 50 µM
- EC50 [2]: 13.5 µM
- capsid formation (HBV capsids): did not significantly affect
- level of encapsidated pgRNA (encapsidated pgRNA): dose-dependently reduced
